# Reference: patent US4946858A, “Novel spirosuccinimides as aldose reductase inhibitors and antihyperglycemic agents” (American Home Products Corporation, priority 1989, dated 1990)
# Like-named read-outs stand apart in the source and are kept apart here.
# Assays:
# diabetic (db/db) mice = assay: Blood glucose lowering activity in diabetic (db/db) mice; type: in vivo, mouse (db/db, C57BL/KsJ); settings: for change in vivo at 100 mg/kg: Mus musculus, po, 96 h, 100 mg/kg/day p.o. (gavage), read-out: % Change from vehicle (plasma glucose)
# Source text: The blood glucose lowering activity of the compounds of this invention were demonstrable in experiments using diabetic (db/db) mice. […] The animals are obese, glucose intolerant and have fasting hyperglycemia which is sometimes accompanied by a paradoxical hyperinsulinemia. Furthermore, the db/db mouse will eventually develop some of the long-term complications that have been associated with diabetes mellitus. [See Coleman Diabetes, 31 (Suppl. 1), 1 (1982)]. In spite of these commonalities, the acute administration of sulfonylureas (even at extremely high dosages) will not reduce the hyperglycemia of the db/db mouse. [See Tutwiler et al, Diabetes 27, 856 (1978)]. […] On the morning of Day 1, 35 mice [male db/db (C57BL/KsJ), Jackson Laboratories, 2 to 7 months of age and body weight 35 to 60 g] were fasted for 4 hours, weighted and a baseline blood sample was collected from the tail-tip of each mouse without anesthesia, placed directly into a fluoride-containing tube, mixed and maintained on ice. Food was then returned to the mice. The plasma was separated and levels of glucose in plasma determined by the Abbott VP Analyzer. Because of the variable plasma glucose levels of the db/db mice, 5 mice having the most extreme (i.e., highest or lowest) plasma glucose levels were excluded and the remaining 30 mice were randomly assigned into […] of equivalent means plasma glucose levels: On the afternoon of Days 1, 2 and 3 the vehicle, control or test drugs were administered (p.o.) to the ad libitum fed mice. […] The test compounds were given by gavage at a dose of 100 mg/kg/day unless otherwise noted in Table 3. On the morning of Day 4, the mice were weighted and fasted, but water was available ad libitum. Three hours later, a blood sample was collected and then the mice were given the fourth administration of drug or vehicle. Blood samples were collected again from the unanesthetized mice at 2 and 4 hours after drug administration. The plasma was separated and levels of glucose in plasma determined by the Abbott VP Analyzer. For each mouse, the percent change of it's plasma glucose level on Day 4 (mean of the 2 and 4 hour samples) from it's respective level before drug administration (Day 1 baseline sample) was determined as follows: [formula] Analysis of variance followed by Dunnett's multiple comparison (one-sided) was used to estimate the degree of statistical significance of the difference between the vehicle group and the individual drug-treated groups. A drug was considered active, at the specific dosage administered,if the difference of the plasma glucose level has a p<0.05.
# [1] = test system: hyperglycemia and hyperinsulinemia; settings: Fujita et al, Diabetes, 32, 804 (1983); cited from earlier work
# galactosemic rats = assay: Lowering of galactitol (dulcitol) accumulation in tissues of galactosemic rats; type: in vivo, rat (Sprague-Dawley); settings: 4 days, vs untreated galactosemic rats
# Source text: The aldose reductase inhibiting property of the compounds of this invention and the utilization of the compounds in preventing, diminishing and alleviating diabetic complications by lowering polyol accumulation were also demonstrable in experiments using galactosemic rats, see Dvornik et al, Science, 182, 1146 (1973). Such experiments are exemplified hereinbelow after the listing of the following general comments pertaining to these experiments:
# (a) Four or more groups of six male rats, 50-70 g, Sprague-Dawley strain, were used. The first group, the control group, was fed a mixture of laboratory chow (rodent Laboratory Chow, Purina) and glucose at 20% (w/w %) concentration. The untreated galactosemic group and the drug-treated groups were fed a similar diet in which galactose is substituted for glucose. The test compound was either admixed to the diet or administered by gavage. In experiments involving compound administration in the diet, the average dose administered was calculated from the actual food intake of the animals in each group. The concentration of galactose in the diet of the treated groups was the same as that for the untreated galactosemic groups.
# (b) After four days, the amimals were killed by decapitation. The eyeballs were removed and punctured with a razor blade; the freed lenses were rolled gently on filter paper and weighed. The sciatic nerves were dissected as completely as possible and weighed. Both tissues when frozen can be kept up to two weeks before being analyzed for galactitol.
# (c) The polyol determination was performed by a modification of the procedure of M. Kraml and L. Cosyns, Clin. Biochem., 2, 373 (1969). Only two minor reagent changes were made: (a) the rinsing mixture was an aqueous 5% (w/v) trichloroacetic acid solution and (b) the stock solution was prepared by dissolving 25 mg of dulcitol in 100 mL of an aqueous trichloroacetic acid solution. [N.B.: For each experiment the average value found in the tissue from rats fed the glucose diet was subtracted from the individual values found in the corresponding tissue in galactose-fed rats to obtain the amount of polyol accumulated.]
# The figures under L, N, and D represent the percentage decrease of galactitol accumulation in the tissues of the lens, sciatic nerve, and diaphragm, respectively, for treated rats as compared to untreated rats.
# aldose reductase = molecular target: T1, aldose reductase (Bos taurus, UniProt P16116); assay: In vitro inhibition of aldose reductase (modified Hayman and Kinoshita procedure, enzyme from bovine lens); type: biochemical; settings: read-out: % Inhibition in Vitro; for inhibition at 1 µM: 10^-6 M
# T1 construct: preparation of the enzyme from bovine lens; from tissue; host or cells: bovine lens
# Source text: In the present case the procedure of Hayman and Kinoshita was modified in that the final chromatography step was omitted in the preparation of the enzyme from bovine lens.
# [2] = Day 4 mean of 2 and 4 hour samples vs Day 1 baseline, difference from vehicle
Structure (SMILES),change in vivo at 100 mg/kg (diabetic (db/db) mice; [2]),inhibition at 1 µM (aldose reductase),inhibition at 10 µM (aldose reductase; 10^-5 M),further results
"O=C1CC2(C(=O)N1)c1ccccc1S(=O)(=O)N2Cc1ccc(Br)cc1 (centres unmarked) [Example 106, 2-[(4-bromophenyl)methyl]-2,3-dihydrospiro[1,2-benzisothiazole-3,3'-pyrrol-idine]-2',5'-dione 1,1-dioxide]",-37%,–,–,–
"CC1(COc2ccc(CC3SC(=O)NC3=O)cc2)CCCCC1 (racemic) [Ciglitazone, (±)-5-[4-[(1-methylcyclohexyl)methoxy]benzyl]-thiazolidine-2,4-dione, reference compound]",-33%,–,–,effect on hyperglycemia and hyperinsulinemia [1]: normalizes these parameters
"CN1C(=O)c2cc(Cl)c(Cl)cc2C12CC(=O)NC2=O (centres unmarked) [Example 122, 5,6-dichloro-2-methylspiro[1H-isoindole-1,3'-pyrrolidine]-2',3,5'(2H)-trione]",-31%,83%,–,"% Lowering of dulcitol accumulation In Vivo, % D (diaphragm) (galactosemic rats; 3 mg/kg): 25%; % Lowering of dulcitol accumulation In Vivo, % N (sciatic nerve) (galactosemic rats; 3 mg/kg): 20%; % Lowering of dulcitol accumulation In Vivo, % D (diaphragm) (galactosemic rats; 50 mg/kg): 90%; % Lowering of dulcitol accumulation In Vivo, % L (lens) (galactosemic rats; 50 mg/kg): 71%; % Lowering of dulcitol accumulation In Vivo, % N (sciatic nerve) (galactosemic rats; 50 mg/kg): 94%; inhibition at 10 µM (aldose reductase): 94%"
"O=C1CC2(C(=O)N1)c1ccccc1C(=O)N2Cc1ccc(Br)cc1F (centres unmarked) [Example 116, 2-[(4-bromo-2-fluorophenyl)methyl]spiro[1H-isoindole-1,3'pyrrolidine]-2',3,5'(2H)-trione]",-36%,54%,84%,"% Lowering of dulcitol accumulation In Vivo, % D (diaphragm) (galactosemic rats; 101 mg/kg): 30%"
O=C1CC2(C(=O)N1)c1ccccc1C(=O)N2Cc1ccc(Cl)c(Cl)c1 (centres unmarked) [Example 115],-21%,45%,82%,–
O=C1CC2(C(=O)N1)c1ccccc1S(=O)(=O)N2Cc1c(F)cccc1Cl (centres unmarked) [Example 110],-17%,–,–,–
O=C1CC2(C(=O)N1)c1ccccc1S(=O)(=O)N2Cc1ccc(Cl)c(Cl)c1 (centres unmarked) [Example 105],-27%,16%,63%,–
O=C1CC2(C(=O)N1)c1ccccc1C(=O)N2Cc1ccccc1 (centres unmarked) [Example 114],-22%,–,–,–
"O=C1CC2(C(=O)N1)c1ccccc1S(=O)(=O)N2Cc1ccc(Br)cc1F (centres unmarked) [Example 104, 2-[(4-bromo-2-fluorophenyl)methyl]-2,3-dihydrospiro[1,2-benzisothiazole-3,3'-pyrrolidine]-2',5'-dione 1,1-dioxide]",-48%,3%,52%,"% Lowering of dulcitol accumulation In Vivo, % L (lens) (galactosemic rats; 104 mg/kg): 13%; comparison with ciglitazone, blood glucose lowering (diabetic (db/db) mice; 100 mg/kg, db/db mice): gives comparable results to ciglitazone at 100 mg/kg"
CC(C)N1C2(CC(=O)NC2=O)c2ccccc2S1(=O)=O (centres unmarked) [Example 111],–,–,–,"% Change from vehicle (plasma glucose) (diabetic (db/db) mice; 87 mg/kg/day p.o. (gavage), Day 4 mean of 2 and 4 hour samples vs Day 1 baseline, difference from vehicle): -27%"
